The nature of series [1]: Compound cytotoxicity, XTT-based colorimetric assay. The format is cell-based. The following applies: human; uninfected MT2 cells, day 4, XTT; read-out: CC50. Summed up:
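Uninfected MT2 cells, antiviral-assay protocol without virus; XTT colorimetric readout day 4; CC50 reported.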
In general terms: Tetrazolium dyes change colour on reduction, which living cells bring about.

Series [2] has as its system recombinant NL4-3 virus (nef section replaced with Renilla luciferase gene) in MT-2 cells. The series is described as follows: HIV cell culture assay (antiviral activity, luciferase readout). It is filed as cell-based. The conditions noted are these: Renilla, NL43, MT-2 cells infected for 4-5 days with recombinant NL4-3 Renilla luciferase virus. The method in brief: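 EC50 was derived by median-effect fitting of Renilla luciferase signal from MT-2 cells. These cells were infected for 4–5 days with NL4-3 reporter virus (nef partly replaced by luciferase; made in 293T cells) in the presence of serially diluted compound. Activity was quantified with a live-cell luciferase substrate.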

The structures appear in SMILES notation. pEC50: −log10 of the molar value.

The CC50 is the concentration giving 50% cytotoxicity. As usually defined, the pEC50 is the EC50 on a negative log10 scale, so that one unit is a factor of ten.

Consider `CCOCCn1nc(NS(C)(=O)=O)c2c(Cl)ccc(-n3c([C@H](Cc4cc(F)cc(F)c4)NC(=O)Cn4nc(C(F)F)c5c4C(F)(F)[C@@H]4C[C@H]54)nc4nc(C5CCC(F)(F)CC5)cc(C(F)F)c4c3=O)c21` (atropisomer, axis not shown; (P)) [Example 150, N-[(1S)-1-[(3P)-3-[4-chloro-1-(2-ethoxyethyl)-3-methanesulfonamido-1H-indazol-7-yl]-7-(4,4-difluorocyclohexyl)-5-(difluoromethyl)-4-oxo-3H,4H-pyrido[2,3-d]pyrimidin-2-yl]-2-(3,5-difluorophenyl)ethyl]-2-[(2S,4R)-9-(difluoromethyl)-5,5-difluoro-7,8-diazatricyclo[4.3.0.0^2,^4]nona-1(6),8-dien-7-yl]acetamide], for which the CC50 at 4 days in series [1] is over 50000 pM. The pEC50 in series [2] was 10.77.

In the case of `CS(=O)(=O)Nc1nn(CCN2CCC(F)(F)C2)c2c(-n3c([C@H](Cc4cc(F)cc(F)c4)NC(=O)Cn4nc(C(F)F)c5c4C(F)(F)[C@@H]4C[C@H]54)nc4nc(C5CCC(F)(F)CC5)cc(C(F)F)c4c3=O)ccc(Cl)c12` (atropisomer, axis not shown; (P)) [Example 154, N-[(1S)-1-[(3P)-3-{4-chloro-1-[2-(3,3-difluoropyrrolidin-1-yl)ethyl]-3-methanesulfonamido-1H-indazol-7-yl}-7-(4,4-difluorocyclohexyl)-5-(difluoromethyl)-4-oxo-3H,4H-pyrido[2,3-d]pyrimidin-2-yl]-2-(3,5-difluorophenyl)ethyl]-2-[(2S,4R)-9-(difluoromethyl)-5,5-difluoro-7,8-diazatricyclo[4.3.0.0^2,^4]nona-1(6),8-dien-7-yl]acetamide], the CC50 at 4 days in series [1] was over 50000 pM. The pEC50 in series [2] is 10.72.

For `CS(=O)(=O)Nc1nn(CCOCC(F)(F)F)c2c(-n3c([C@H](Cc4cc(F)cc(F)c4)NC(=O)Cn4nc(C(F)F)c5c4C(F)(F)[C@@H]4C[C@H]54)nc4nc(C5CCC(F)(F)CC5)cc(C(F)F)c4c3=O)ccc(Cl)c12` (atropisomer, axis not shown; (P)) [Example 155, N-[(1S)-1-[(3P)-3-{4-chloro-3-methanesulfonamido-1-[2-(2,2,2-trifluoroethoxy)ethyl]-1H-indazol-7-yl}-7-(4,4-difluorocyclohexyl)-5-(difluoromethyl)-4-oxo-3H,4H-pyrido[2,3-d]pyrimidin-2-yl]-2-(3,5-difluorophenyl)ethyl]-2-[(2S,4R)-9-(difluoromethyl)-5,5-difluoro-7,8-diazatricyclo[4.3.0.0^2,^4]nona-1(6),8-dien-7-yl]acetamide], the cytotoxic concentration (CC50) at 4 days in series [1] was over 50000 pM. Besides, the pEC50 in series [2] is 10.57.

On to `CS(=O)(=O)Nc1nn(CCN2CCC(F)(F)C2)c2c(-n3c([C@H](Cc4cc(F)cc(F)c4)NC(=O)Cn4nc(C(F)F)c5c4C(F)(F)[C@@H]4C[C@H]54)nc4nc(C5CCC(F)(F)CC5)ccc4c3=O)ccc(Cl)c12` (atropisomer, axis not shown; (P)) [Example 158, N-[(1S)-1-[(3P)-3-{4-chloro-1-[2-(3,3-difluoropyrrolidin-1-yl)ethyl]-3-methanesulfonamido-1H-indazol-7-yl}-7-(4,4-difluorocyclohexyl)-4-oxo-3H,4H-pyrido[2,3-d]pyrimidin-2-yl]-2-(3,5-difluorophenyl)ethyl]-2-[(2S,4R)-9-(difluoromethyl)-5,5-difluoro-7,8-diazatricyclo[4.3.0.0^2,^4]nona-1(6),8-dien-7-yl]acetamide], for which the CC50 at 4 days in series [1] was over 50000 pM. Besides, the negative-log EC50 (pEC50) in series [2] is 10.96.

Take `Cc1cc(C2CCC(F)(F)CC2)nc2nc([C@H](Cc3cc(F)cc(F)c3)NC(=O)Cn3nc(C(F)F)c4c3C(F)(F)[C@@H]3C[C@H]43)n(-c3ccc(Cl)c4c(NS(C)(=O)=O)nn(CCN5C[C@@H](C)O[C@@H](C)C5)c34)c(=O)c12` (atropisomer, axis not shown; (P)) [Example 159, N-[(1S)-1-[(3P)-3-(4-chloro-1-{2-[(2R,6S)-2,6-dimethylmorpholin-4-yl]ethyl}-3-methanesulfonamido-1H-indazol-7-yl)-7-(4,4-difluorocyclohexyl)-5-methyl-4-oxo-3H,4H-pyrido[2,3-d]pyrimidin-2-yl]-2-(3,5-difluorophenyl)ethyl]-2-[(2S,4R)-9-(difluoromethyl)-5,5-difluoro-7,8-diazatricyclo[4.3.0.0^2,4]nona-1(6),8-dien-7-yl]acetamide]: in series [1], the CC50 at 4 days was over 50000 pM. The pEC50 in series [2] is 10.77.

For `CS(=O)(=O)Nc1nn(CCN2CC(C(F)F)C2)c2c(-n3c([C@H](Cc4cc(F)cc(F)c4)NC(=O)Cn4nc(C(F)F)c5c4C(F)(F)[C@@H]4C[C@H]54)nc4nc(C5CCC(F)(F)CC5)ccc4c3=O)ccc(Cl)c12` (atropisomer, axis not shown; (P)) [Example 160, N-[(1S)-1-[(3P)-3-(4-chloro-1-{2-[3-(difluoromethyl)azetidin-1-yl]ethyl}-3-methanesulfonamido-1H-indazol-7-yl)-7-(4,4-difluorocyclohexyl)-4-oxo-3H,4H-pyrido[2,3-d]pyrimidin-2-yl]-2-(3,5-difluorophenyl)ethyl]-2-[(2S,4R)-9-(difluoromethyl)-5,5-difluoro-7,8-diazatricyclo[4.3.0.0^2,^4]nona-1(6),8-dien-7-yl]acetamide], the CC50 at 4 days in series [1] was over 50000 pM. In series [2], the pEC50 was 10.64.

Consider `CS(=O)(=O)Nc1nn(CCN2CCCCC2)c2c(-n3c([C@H](Cc4cc(F)cc(F)c4)NC(=O)Cn4nc(C(F)F)c5c4C(F)(F)[C@@H]4C[C@H]54)nc4nc(C5CCC(F)(F)CC5)ccc4c3=O)ccc(Cl)c12` (atropisomer, axis not shown; (P)) [Example 165, N-[(1S)-1-[(3P)-3-{4-chloro-3-methanesulfonamido-1-[2-(piperidin-1-yl)ethyl]-1H-indazol-7-yl}-7-(4,4-difluorocyclohexyl)-4-oxo-3H,4H-pyrido[2,3-d]pyrimidin-2-yl]-2-(3,5-difluorophenyl)ethyl]-2-[(2S,4R)-9-(difluoromethyl)-5,5-difluoro-7,8-diazatricyclo[4.3.0.0^2,^4]nona-1(6),8-dien-7-yl]acetamide], for which the CC50 at 4 days in series [1] was over 50000 pM. Also, in series [2], the pEC50 was 10.51.

Turning to `CS(=O)(=O)Nc1nn(CCN2CCC(F)CC2)c2c(-n3c([C@H](Cc4cc(F)cc(F)c4)NC(=O)Cn4nc(C(F)F)c5c4C(F)(F)[C@@H]4C[C@H]54)nc4nc(C5CCC(F)(F)CC5)ccc4c3=O)ccc(Cl)c12` (atropisomer, axis not shown; (P)) [Example 166, N-[(1S)-1-[(3P)-3-{4-chloro-1-[2-(4-fluoropiperidin-1-yl)ethyl]-3-methanesulfonamido-1H-indazol-7-yl}-7-(4,4-difluorocyclohexyl)-4-oxo-3H,4H-pyrido[2,3-d]pyrimidin-2-yl]-2-(3,5-difluorophenyl)ethyl]-2-[(2S,4R)-9-(difluoromethyl)-5,5-difluoro-7,8-diazatricyclo[4.3.0.0^2,^4]nona-1(6),8-dien-7-yl]acetamide], the CC50 at 4 days in series [1] was over 50000 pM. Besides, the pEC50 in series [2] was 10.72.
